Tests used:
Assay in all cases: relative viability (nuclei count vs DMSO), 5 days (fraction); higher = more cells survive
[1] = compound: C1=CC=C2C(=C1)C=CC(=C2SSC3=C(C=CC4=CC=CC=C43)O)O [IPA-3] + Cc1nc(NC(=O)N2CCC[C@H]2C(N)=O)sc1-c1ccnc(C(C)(C)C(F)(F)F)c1 [Alpelisib] (partner 2 µM)
In short: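 Five library-drug doses in √10 steps were combined with a fixed anchor-drug dose, or a single drug was given alone, by pin tool to lung cancer cell lines in 1536-well plates the day after seeding. Nuclei were stained and counted after 5 days. Relative viability is the nuclei count in treated wells over that in vehicle wells, taken as the median of duplicate plates.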

[2] = compound: Cn1c(Nc2ccc(C(F)(F)F)cc2)nc2cc(Oc3ccnc(-c4ncc(C(F)(F)F)[nH]4)c3)ccc21 [RAF265]
In short: (§1)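 For viability, nuclei in each treated well were divided by nuclei in vehicle wells and the median across plates was taken. Lung cancer cell lines in 1536-well plates were pinned with five library-drug doses (not always all listed) spaced by √10, cultured 5 days without medium change, and imaged at 4× after Hoechst staining, with plates passing only at control CV below 25% and at least one doubling.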

[3] = compound: C1=CC=C2C(=C1)C=CC(=C2SSC3=C(C=CC4=CC=CC=C43)O)O [IPA-3]
In short: as §1

[4] = compound: Cc1ccc(-n2nc(C(C)(C)C)cc2NC(=O)Nc2ccc(OCCN3CCOCC3)c3ccccc23)cc1 [Doramapimod]
In short: as §1

| Cell Line | relative viability ([1]; first compound 0.2 µM) | relative viability ([1]; first compound 0.6325 µM) | relative viability ([1]; first compound 2 µM) | relative viability ([1]; first compound 6.325 µM) | relative viability ([1]; first compound 20 µM) | relative viability ([2]; 0.01 µM) | relative viability ([2]; 0.03162 µM) | relative viability ([2]; 0.1 µM) | relative viability ([2]; 0.3162 µM) | relative viability ([2]; 1 µM) | relative viability ([3]; 0.2 µM) | relative viability ([3]; 0.6325 µM) | relative viability ([3]; 2 µM) | relative viability ([3]; 6.325 µM) | relative viability ([3]; 20 µM) | relative viability ([4]; 0.02 µM) | relative viability ([4]; 0.06325 µM) | relative viability ([4]; 0.2 µM) | relative viability ([4]; 0.6325 µM) | relative viability ([4]; 2 µM) |
| --- | --- | --- | --- | --- | --- | --- | --- | --- | --- | --- | --- | --- | --- | --- | --- | --- | --- | --- | --- | --- |
| NCI-H2170 | 0.871 | 0.781 | 0.894 | 0.727 | 0.806 | 0.957 | 0.896 | 0.877 | 0.755 | 0.716 | 1.08 | 1.01 | 0.999 | 0.878 | 0.988 | 0.923 | 0.98 | 0.996 | 0.972 | 0.943 |
| HCC-366 | 0.499 | 0.425 | 0.432 | 0.477 | 0.333 | 1.03 | 0.99 | 1.06 | 0.975 | 0.947 | 1.04 | 0.976 | 0.98 | 1.03 | 1.05 | 0.951 | 0.979 | 1 | 1.04 | 0.99 |
| NCI-H2347 | 1.12 | 0.941 | 0.928 | 1.08 | 1.01 | 1.16 | 0.975 | 0.984 | 0.822 | 0.528 | 1.21 | 0.962 | 1 | 1.01 | 1.1 | 1.05 | 0.973 | 1.01 | 0.964 | 0.959 |
| COR-L 105 | 0.998 | 0.964 | 1.17 | 0.859 | 1.11 | 1.08 | 1.05 | 0.954 | 0.463 | 0.563 | 1.2 | 0.882 | 0.901 | 0.984 | 0.827 | 0.861 | 0.93 | 0.935 | 1.1 | 0.993 |
| 201T | 1.02 | 1.01 | 0.997 | 0.936 | 1.04 | 1.04 | 0.99 | 1.02 | 0.977 | 0.992 | 0.998 | 0.975 | 0.958 | 0.993 | 1.09 | 1 | 1.02 | 0.975 | 1.15 | 0.957 |
| NCI-H2126 | 0.762 | 0.73 | 0.699 | 0.727 | 0.928 | 1.04 | 0.949 | 0.951 | 0.855 | 0.72 | 1.07 | 0.974 | 0.976 | 0.995 | 1.11 | 1.02 | 1.02 | 0.973 | 1.03 | 0.967 |
| LC-2-ad | 0.927 | 0.808 | 0.897 | 0.82 | 0.941 | 1.09 | 0.989 | 1.11 | 0.748 | 0.484 | 1.05 | 0.958 | 0.978 | 1.03 | 0.992 | 0.991 | 1.02 | 1.07 | 1.02 | 0.923 |

From the supplement of paper PMC10307832
